Consider 25 compounds from PMC3880596 (Journal of medicinal chemistry, 2013).

A word on the IC50: it is the point on the concentration scale where inhibition reaches its midpoint. Usually IC90 stands for the concentration needed for an effect of 90%. Usually half-life stands for the time needed for the level to fall by half in the phase considered. Higher therefore signals slow loss.

The target of data set [1] is T1, recombinant BoNT/A LC (Clostridium botulinum, UniProt P0DPI0). The settings on record: cited from earlier work.
The test system of data set [2] is P. falciparum Indochina W2 clone. In words: microbe, parasite or virus in culture. It counts as cell-based, Plasmodium falciparum.
Data set [3] concerns P. falciparum African D6 clone. As to the kind of experiment: microbe, parasite or virus in culture. It counts as cell-based, Plasmodium falciparum. The settings on record: for IC50: Plasmodium falciparum, D6, read-out: antimalarial activity IC50, CQS D6.
Data set [4] relates to P. falciparum multidrug resistant C235 strain (Thailand). As to the kind of experiment: microbe, parasite or virus in culture. The data set is classed as cell-based, Plasmodium falciparum.
Data set [5] addresses T1, recombinant BoNT/A LC. As to the kind of experiment: biochemical. The settings on record: read-out: BoNT/A LC inhibition.
Data set [6] is described as follows: in vitro. The settings on record: human, microsomes, pH 7.4.
Data set [7] can be described thus: in vitro. To be noted: mouse, microsomes, pH 7.4.

T1 sequence (P0DPI0 2-448 limits assumed): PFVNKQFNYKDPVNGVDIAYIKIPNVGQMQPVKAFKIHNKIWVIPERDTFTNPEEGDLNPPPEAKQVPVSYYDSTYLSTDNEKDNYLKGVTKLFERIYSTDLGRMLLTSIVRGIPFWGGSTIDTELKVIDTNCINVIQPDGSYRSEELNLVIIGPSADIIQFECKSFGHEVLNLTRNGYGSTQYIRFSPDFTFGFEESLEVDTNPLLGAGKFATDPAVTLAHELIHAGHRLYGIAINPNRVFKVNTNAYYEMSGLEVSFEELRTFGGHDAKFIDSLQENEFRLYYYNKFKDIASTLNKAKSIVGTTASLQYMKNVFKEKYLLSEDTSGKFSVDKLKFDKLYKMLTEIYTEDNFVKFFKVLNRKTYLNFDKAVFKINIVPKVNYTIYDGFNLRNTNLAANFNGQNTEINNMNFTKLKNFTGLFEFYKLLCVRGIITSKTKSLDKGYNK

`CCN(CC)Cc1cc(Nc2ccnc3cc(Cl)ccc23)ccc1O` [Amodiaquine]: the “BoNT/A LC inhibition (in words)” value in data set [1] is “poor inhibitors”.

Take `CCN(CC)CCCC(C)Nc1ccnc2cc(Cl)ccc12.O=P(O)(O)O.O=P(O)(O)O` (centres unmarked) [CQ, chloroquine, reference compound]: the IC50 is 634 nM in data set [2] (Plasmodium falciparum, W2, read-out: antimalarial activity IC50, CQR W2); 14.2 nM in data set [3]; 226 nM in data set [4] (Plasmodium falciparum, read-out: antimalarial activity IC50, MDR TM91C235). Further, in data set [1], the “BoNT/A LC inhibition (in words)” value is recorded as “poor BoNT/A LC inhibitors”.

Take `CCN(CC)CCCC(C)Nc1c2ccc(Cl)cc2nc2ccc(OC)cc12` (centres unmarked) [Quinacrine]: the “BoNT/A LC inhibition (in words)” value in data set [1] is “poor inhibitors”.

In the case of `C=C[C@H]1C[N@@]2CC[C@H]1C[C@@H]2[C@@H](O)c1ccnc2ccc(OC)cc12` [Quinidine], in data set [1], the “BoNT/A LC inhibition (in words)” value is listed as “poor inhibitors”.

Consider `C=C[C@H]1C[N@@]2CC[C@H]1C[C@H]2[C@H](O)c1ccnc2ccc(OC)cc12` [Quinine], for which the “BoNT/A LC inhibition (in words)” value in data set [1] is “poor inhibitors”.

Take `NCCNc1ccnc2cc(Cl)ccc12` [compound 4, N1-(7-chloroquinolin-4-yl)ethane-1,2-diamine]: the “BoNT/A LC inhibition (in words), tested as fragments” value in data set [1] is given as “poor BoNT/A LC inhibitors”.

For `NCCCNc1ccnc2cc(Cl)ccc12` [compound 5, N1-(7-chloroquinolin-4-yl)propane-1,3-diamine], the “BoNT/A LC inhibition (in words), tested as fragments” value in data set [1] was “poor BoNT/A LC inhibitors”.

Turning to `Clc1ccc2c(NCCNCc3ccccc3)ccnc2c1` [compound 6, N-Benzyl-N'-(7-chloroquinolin-4-yl)ethane-1,2-diamine], the inhibition at 20 µM in data set [5] was more than 50%. For the same compound, the IC90 in data set [2] (Plasmodium falciparum, W2, read-out: antimalarial activity IC90, CQR W2) stood at 14.1 nM. In addition, the IC50 in data set [3] is less than 9 nM.

`Clc1ccc2c(NCCCNCc3ccccc3)ccnc2c1` [compound 7, N-Benzyl-N'-(7-chloroquinolin-4-yl)propane-1,3-diamine]: in data set [5], the inhibition at 20 µM was more than 50%. The “selectivity index (IC50), SI = ICtox/ICP.f. activity, W2” value in data set [2] is listed as 56/169/73. For the same compound, the “selectivity index (IC50), SI = ICtox/ICP.f. activity, D6” value in data set [3] was 56/169/73. Further, the “selectivity index (IC50), SI = ICtox/ICP.f. activity, TM91C235” value in data set [4] was 56/169/73. The half-life in data set [6] and in data set [7] was not below 60 min throughout.

On to `CC(C)(C)c1ccc(CNCCNc2ccnc3cc(Cl)ccc23)cc1` [compound 8, N-(4-Tert-butylbenzyl)-N'-(7-chloroquinolin-4-yl)ethane-1,2-diamine], for which the “selectivity index (IC50), SI = ICtox/ICP.f. activity, W2” value in data set [2] is 245/429/419. Further, the “selectivity index (IC50), SI = ICtox/ICP.f. activity, D6” value in data set [3] is on record as 245/429/419. In addition, the “selectivity index (IC50), SI = ICtox/ICP.f. activity, TM91C235” value in data set [4] was 245/429/419.

Regarding `CC(C)(C)c1ccc(CNCCCNc2ccnc3cc(Cl)ccc23)cc1` [compound 9, N-(4-Tert-butylbenzyl)-N'-(7-chloroquinolin-4-yl)propane-1,3-diamine], in data set [2], the “selectivity index (IC50), SI = ICtox/ICP.f. activity, W2” value is reported as 45/100/68. For the same compound, in data set [3], the “selectivity index (IC50), SI = ICtox/ICP.f. activity, D6” value is 45/100/68. Further, in data set [4], the “selectivity index (IC50), SI = ICtox/ICP.f. activity, TM91C235” value is on record as 45/100/68.

Take `COc1ccc(CNCCNc2ccnc3cc(Cl)ccc23)cc1` [compound 10, N-(7-Chloroquinolin-4-yl)-N'-(4-methoxybenzyl)ethane-1,2-diamine]: the “selectivity index (IC50), SI = ICtox/ICP.f. activity, W2” value in data set [2] is reported as 406/1806/362. In addition, the “selectivity index (IC50), SI = ICtox/ICP.f. activity, D6” value in data set [3] is listed as 406/1806/362. In addition, in data set [4], the “selectivity index (IC50), SI = ICtox/ICP.f. activity, TM91C235” value is listed as 406/1806/362.

As for `COc1ccc(CNCCCNc2ccnc3cc(Cl)ccc23)cc1` [compound 11, N-(7-Chloroquinolin-4-yl)-N'-(4-methoxybenzyl)propane-1,3-diamine], the “selectivity index (IC50), SI = ICtox/ICP.f. activity, W2” value in data set [2] is recorded as 86/778/95. Also, in data set [3], the “selectivity index (IC50), SI = ICtox/ICP.f. activity, D6” value is listed as 86/778/95 and the IC50 is less than 9 nM. Further, in data set [4], the “selectivity index (IC50), SI = ICtox/ICP.f. activity, TM91C235” value is 86/778/95.

Regarding `Fc1ccc(CNCCNc2ccnc3cc(Cl)ccc23)cc1` [compound 12, N-(7-Chloroquinolin-4-yl)-N'-(4-fluorobenzyl)ethane-1,2-diamine], the “selectivity index (IC50), SI = ICtox/ICP.f. activity, W2” value in data set [2] was 350/608/291. The “selectivity index (IC50), SI = ICtox/ICP.f. activity, D6” value in data set [3] is 350/608/291. Also, the “selectivity index (IC50), SI = ICtox/ICP.f. activity, TM91C235” value in data set [4] is reported as 350/608/291.

As for `Fc1ccc(CNCCCNc2ccnc3cc(Cl)ccc23)cc1` [compound 13, N-(7-Chloroquinolin-4-yl)-N'-(4-fluorobenzyl)propane-1,3-diamine], the “selectivity index (IC50), SI = ICtox/ICP.f. activity, W2” value in data set [2] is listed as 110/415/185. For the same compound, the “selectivity index (IC50), SI = ICtox/ICP.f. activity, D6” value in data set [3] is on record as 110/415/185. For the same compound, the “selectivity index (IC50), SI = ICtox/ICP.f. activity, TM91C235” value in data set [4] was 110/415/185.

Take `Clc1ccc2c(NCCNCc3ccc(Br)cc3)ccnc2c1` [compound 14, N-(4-Bromobenzyl)-N'-(7-chloroquinolin-4-yl)ethane-1,2-diamine]: the “selectivity index (IC50), SI = ICtox/ICP.f. activity, W2” value in data set [2] is given as 695/1606/660. Further, the “selectivity index (IC50), SI = ICtox/ICP.f. activity, D6” value in data set [3] is on record as 695/1606/660. The “selectivity index (IC50), SI = ICtox/ICP.f. activity, TM91C235” value in data set [4] is listed as 695/1606/660. For the same compound, the half-life in data set [6] and in data set [7] was not below 60 min throughout.

`Clc1ccc2c(NCCCNCc3ccc(Br)cc3)ccnc2c1` [compound 15, N-(4-Bromobenzyl)-N'-(7-chloroquinolin-4-yl)propane-1,3-diamine]: the half-life in data set [6] and in data set [7] was not below 60 min throughout.

For `Clc1ccc2c(NCCNCc3ccncc3)ccnc2c1` [compound 16, N-(7-Chloroquinolin-4-yl)-N'-(pyridin-4-ylmethyl)ethane-1,2-diamine], in data set [2], the “selectivity index (IC50), SI = ICtox/ICP.f. activity, W2” value is 409/2528/752. For the same compound, the “selectivity index (IC50), SI = ICtox/ICP.f. activity, D6” value in data set [3] is recorded as 409/2528/752. In addition, the “selectivity index (IC50), SI = ICtox/ICP.f. activity, TM91C235” value in data set [4] is on record as 409/2528/752.

Consider `Clc1ccc2c(NCCCNCc3ccncc3)ccnc2c1` [compound 17, N-(7-Chloroquinolin-4-yl)-N'-(pyridin-4-ylmethyl)propane-1,3-diamine], for which the “selectivity index (IC50), SI = ICtox/ICP.f. activity, W2” value in data set [2] is on record as 176/4146/469. Besides, in data set [3], the “selectivity index (IC50), SI = ICtox/ICP.f. activity, D6” value is 176/4146/469 and the IC50 is less than 9 nM. Besides, the “selectivity index (IC50), SI = ICtox/ICP.f. activity, TM91C235” value in data set [4] is recorded as 176/4146/469.

Regarding `Clc1ccc2c(NCCNCc3cccnc3)ccnc2c1` [compound 18, N-(7-Chloroquinolin-4-yl)-N'-(pyridin-3-ylmethyl)ethane-1,2-diamine], the “selectivity index (IC50), SI = ICtox/ICP.f. activity, W2” value in data set [2] is listed as 426/1796/882. The “selectivity index (IC50), SI = ICtox/ICP.f. activity, D6” value in data set [3] is reported as 426/1796/882. Also, the “selectivity index (IC50), SI = ICtox/ICP.f. activity, TM91C235” value in data set [4] is given as 426/1796/882.

On to `Clc1ccc2c(NCCCNCc3cccnc3)ccnc2c1` [compound 19, N-(7-Chloroquinolin-4-yl)-N'-(pyridin-3-ylmethyl)propane-1,3-diamine], for which the “selectivity index (IC50), SI = ICtox/ICP.f. activity, W2” value in data set [2] is given as 90/ /317. For the same compound, the “selectivity index (IC50), SI = ICtox/ICP.f. activity, TM91C235” value in data set [4] is 90/ /317. The half-life in data set [6] and in data set [7] was not below 60 min each time.

On to `Clc1ccc2c(NCCNCc3cnccc3Cl)ccnc2c1` [compound 20, N-[(4-Chloropyridin-3-yl)methyl]-N'-(7-chloroquinolin-4-yl)ethane-1,2-diamine], for which, in data set [2], the “selectivity index (IC50), SI = ICtox/ICP.f. activity, W2” value is given as 46/102/78. For the same compound, in data set [3], the “selectivity index (IC50), SI = ICtox/ICP.f. activity, D6” value is 46/102/78. Further, the “selectivity index (IC50), SI = ICtox/ICP.f. activity, TM91C235” value in data set [4] is recorded as 46/102/78.

On to `Clc1ccc2c(NCCCNCc3cnccc3Cl)ccnc2c1` [compound 21, N-[(4-Chloropyridin-3-yl)methyl]-N'-(7-chloroquinolin-4-yl)propane-1,3-diamine], for which the “selectivity index (IC50), SI = ICtox/ICP.f. activity, W2” value in data set [2] was 52/146/121. Besides, the “selectivity index (IC50), SI = ICtox/ICP.f. activity, D6” value in data set [3] is 52/146/121. Further, the “selectivity index (IC50), SI = ICtox/ICP.f. activity, TM91C235” value in data set [4] was 52/146/121.

With `COc1ccncc1CNCCNc1ccnc2cc(Cl)ccc12` [compound 22, N-(7-Chloroquinolin-4-yl)-N'-[(4-methoxypyridin-3-yl)methyl]ethane-1,2-diamine], the “selectivity index (IC50), SI = ICtox/ICP.f. activity, W2” value in data set [2] is 435/4000/588. In addition, the “selectivity index (IC50), SI = ICtox/ICP.f. activity, D6” value in data set [3] is given as 435/4000/588. In addition, in data set [4], the “selectivity index (IC50), SI = ICtox/ICP.f. activity, TM91C235” value is reported as 435/4000/588.

As for `COc1ccncc1CNCCCNc1ccnc2cc(Cl)ccc12` [compound 23, N-(7-Chloroquinolin-4-yl)-N'-[(4-methoxypyridin-3-yl)methyl]propane-1,3-diamine], in data set [2], the “selectivity index (IC50), SI = ICtox/ICP.f. activity, W2” value is listed as 57/1040/93. Besides, in data set [3], the “selectivity index (IC50), SI = ICtox/ICP.f. activity, D6” value was 57/1040/93 and the IC50 was less than 9 nM. For the same compound, in data set [4], the “selectivity index (IC50), SI = ICtox/ICP.f. activity, TM91C235” value is 57/1040/93. This compound had a half-life in data set [6] not below 60 min. This compound also yielded a half-life in data set [7] not below 60 min.
